The test system of experiment [1] is E. faecalis ATCC 29212. Particulars: E. faecalis ATCC 29212; 90 min incubation; average of 3 assays ± SD. In outline:
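Values are minimum inhibitory, bactericidal and membrane-disruptive concentrations after a 90-min, 37°C incubation of late-exponential bacteria with serially diluted peptides. Media and atmosphere were matched to each strain: Luria Broth aerobically, and Todd Hewitt broth under anaerobic conditions for S. mutans.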

Experiment [2] has as its system P. aeruginosa strain PAO1-LAC, ATCC 47085. Particulars: P. aeruginosa PAO1-LAC, ATCC 47085; 90 min incubation; average of 3 assays ± SD. In short, it runs like this: (§1)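 Peptides dissolved in DMSO were diluted in the appropriate broth (250–0.244 μM before bacteria were added) and mixed with 2.5 × 10^5 viable cells per well. Plates stood 90 min at 37°C. The anaerobe F. nucleatum grew in cysteine-supplemented BHI, while the aerobic strains grew in LB. Inhibition followed CLSI broth microdilution.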

In experiment [3] the test system is K. pneumoniae ATCC 13883. Particulars: K. pneumoniae ATCC 13883; 90 min incubation; average of 3 assays ± SD. In outline:
(§2)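 Late-exponential bacteria (BacLight/flow cytometry counted) at 2.5 × 10^5 cells/well were incubated 90 min at 37°C with peptide dilution series (250–0.244 μM in media before bacteria were added). F. nucleatum was run anaerobically in BHI with 0.05% L-cysteine, and the other strains aerobically in LB. MIC was then read by CLSI broth microdilution.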

Experiment [4] relates to E. faecalis ATCC 29212. To be noted: E. faecalis ATCC 29212; 90 min incubation; average of 3 assays ± SD. In short, it runs like this:
as §1
The source holds these as a separate data set.

For experiment [5], the system named is S. aureus (MRSA) ATCC 43300. Particulars: S. aureus (MRSA) ATCC 43300; 90 min incubation; average of 3 assays ± SD. In short, it runs like this: as §1
For experiment [6], the system named is E. coli ATCC 25922. Particulars: E. coli ATCC 25922; 90 min incubation; average of 3 assays ± SD. In outline:
as §2

Experiment [7] relates to E. aerogenes ATCC 13048. To be noted: E. aerogenes ATCC 13048; 90 min incubation; average of 3 assays ± SD. In short, it runs like this: as §2
The subject of experiment [8] is S. aureus (MSSA) ATCC 29213. To be noted: S. aureus (MSSA) ATCC 29213; 90 min incubation; average of 3 assays ± SD. In outline: as §1
Experiment [9] deals with A. baumannii strain 2208, ATCC 19606. To be noted: A. baumannii strain 2208, ATCC 19606; 90 min incubation; average of 3 assays ± SD. In short, it runs like this:
as §1

Experiment [10] has as its system E. coli ATCC 25922. Description: MDC, flow cytometry Syto9/PI membrane disruption assay. Format: cell-based, Escherichia coli. To be noted: 90 min incubation, average of 3 assays ± SD. The text has this:
(§3) The bacterial strains; Fusobacterium nucleatum ATCC 25586, Streptococcus mutans Ingbritt, Staphylococcus aureus (MSSA) ATCC 29213; Staphylococcus aureus (MRSA) ATCC 43300; Enterococcus faecalis ATCC 29212; Enterobacter aerogenes ATCC 13048; Pseudomonas aeruginosa strain PAO1-LAC, ATCC 47085; Klebsiella pneumoniae ATCC 13883; Acinetobacter baumannii strain 2208, ATCC 19606; Escherichia coli ATCC 25922 lyophilised or glycerol stocks were obtained from the culture collection of the Oral Health Cooperative Research Centre, The Melbourne Dental School, University of Melbourne, Australia. These strains were selected for this study as they are widely used in antimicrobial studies and are considered to be important pathogens and major targets for antibiotic resistant studies. […] After overnight incubation, 0.5–2.0 mL of the starter culture was used to inoculate the appropriate fresh broth (200 mL) and growth monitored at 650 nm using a spectrophotometer (model 275E; Perkin-Elmer, Sydney, Australia) with culture purity checked by microscopic examination and culture. Bacteria were harvested during late exponential growth phase and viability and bacteria/mL determined using a BacLight viability kit (Invitrogen, Sydney, Australia) and a Quanta SC-MPL flow cytometer (Beckman coulter Pty, Ltd, Sydney, Australia). […]
In general terms: Flow cytometry measures light scatter and fluorescence of single cells or particles in a stream.

The test system of experiment [11] is E. aerogenes ATCC 13048. The experiment is described as above. It is filed as cell-based, Enterobacter aerogenes. Particulars: 90 min incubation, average of 3 assays ± SD.
Excerpt: as §3

In experiment [12] the test system is S. aureus (MSSA) ATCC 29213. The description is as above. It is filed as cell-based, Staphylococcus aureus. Particulars: 90 min incubation, average of 3 assays ± SD.
Excerpt: as §3

Experiment [13] concerns K. pneumoniae ATCC 13883. The description is as above. It is filed as cell-based, Klebsiella pneumoniae. To be noted: 90 min incubation, average of 3 assays ± SD.
Excerpt: as §3

Experiment [14] concerns A. baumannii strain 2208, ATCC 19606. The experiment is described as above. Format: cell-based, Acinetobacter baumannii. To be noted: 90 min incubation, average of 3 assays ± SD.
Excerpt: as §3

Experiment [15] has as its system P. aeruginosa strain PAO1-LAC, ATCC 47085. The experiment is described as above. To be noted: 90 min incubation, average of 3 assays ± SD. Format: cell-based, Pseudomonas aeruginosa.
Excerpt: as §3

Experiment [16] concerns E. faecalis ATCC 29212. The description is as above. Format: cell-based, Enterococcus faecalis. To be noted: 90 min incubation, average of 3 assays ± SD.
Excerpt: as §3

In brackets after ≈: the same amount, converted by molar mass. Marks after values point to notes of the source that are not given here. Where a SMILES comes first, the peptide text is derived from it. Where no end group is shown, it is not given here. [ ]: non-standard residue; d: D form. Phe(ol) = N[C@H](CO)Cc1ccccc1; Aib = CC(C)(N)C(=O)O

Consider `CC(=O)NC(C)(C)C(=O)N1CCC[C@H]1C(=O)NC(C)(C)C(=O)N[C@@H](C)C(=O)NC(C)(C)C(=O)N[C@@H](C)C(=O)N[C@@H](CCC(N)=O)C(=O)NC(C)(C)C(=O)N[C@H](C(=O)NC(C)(C)C(=O)NCC(=O)N[C@@H](CC(C)C)C(=O)NC(C)(C)C(=O)N1CCC[C@H]1C(=O)N[C@H](C(=O)NC(C)(C)C(=O)NC(C)(C)C(=O)N[C@@H](CCC(=O)O)C(=O)N[C@@H](CCC(N)=O)C(=O)N[C@H](CO)Cc1ccccc1)C(C)C)C(C)C` [Alamethicin] (Ac-[Aib]P[Aib]A[Aib]AQ[Aib]V[Aib]GL[Aib]PV[Aib][Aib]EQ[Phe(ol)]; N-terminus assumed), for which, in the experiment on E. faecalis ATCC 29212 [1], the MBC is 48.1 ± 5.4 µM (≈ 94.5 µg/mL). For the same molecule, the minimum inhibitory concentration (MIC) is over 250 µM in experiment [2]; over 250 µM in the experiment on K. pneumoniae ATCC 13883 [3]; 30.1±9.6^e μM with E. faecalis ATCC 29212 [4]; 50.8 ± 3.5 µM (≈ 99.8 µg/mL) in experiment [5]; over 250 µM with E. coli ATCC 25922 [6]; over 250 µM against E. aerogenes ATCC 13048 [7]. Further, the MIC is 31.4 ± 7.4 µM (≈ 61.7 µg/mL) in [8] and 142.9±19.6^e μM in [9]. Moreover, the MDC in the experiment with E. coli ATCC 25922 [10] is over 250 µM; with E. aerogenes ATCC 13048 [11] it was over 250 µM; in experiment [12], 30.3 ± 8.2 µM; in the experiment on K. pneumoniae ATCC 13883 [13], over 250 µM; in experiment [14], over 250 µM; in [15], over 250 µM. In the experiment with E. faecalis ATCC 29212 [16], this molecule had an MDC of 48.4 ± 10.9 µM.
Regarding “GIGKFLHSAKKFGKAFVGEIMNS-NH2 [Magainin II]”, the MBC with E. faecalis ATCC 29212 [1] is over 250 µM. Also, the minimal inhibitory concentration (MIC) in [2] is 26.1±1.2^e μM; in the experiment with K. pneumoniae ATCC 13883 [3], 132.2 ± 28.5 µM; with E. faecalis ATCC 29212 [4] it was over 250 µM; in experiment [5] it was over 250 µM; against E. coli ATCC 25922 [6] it was 29.5±3.7^e μM; in the experiment with E. aerogenes ATCC 13048 [7], over 250 µM. Also, the MIC in experiment [8] is over 250 µM; in experiment [9], 15.1±1.53^e μM.

As usually defined, the MBC is the smallest concentration meeting the test's criterion for killing. Read a low MBC as more potent killing. In general, MIC refers to the smallest concentration in the dilution series that meets the test's criterion for growth inhibition. The low end stands for greater potency, the high end for weaker potency.

The record behind these values is publication PMC4795541, “A Rapid and Quantitative Flow Cytometry Method for the Analysis of Membrane Disruptive Antimicrobial Activity” (PLoS ONE, 2016).
